Results as given in EPA's ToxRefDB 2.

Tests used:
dog [1] = conditions: Sub-acute repeat dose toxicity, beagle, Oral, Gavage/Intubation, dose end: 4 week, group: systemic
rat [2] = conditions: Prenatal developmental toxicity study, sprague dawley, Oral, Gavage/Intubation, dose end: 17 GD
rat [3] = conditions: Chronic toxicity, sprague dawley, Oral, Gavage/Intubation, dose end: 6 month, group: systemic
rabbit [4] = conditions: Prenatal developmental toxicity study, new zealand white, Oral, Gavage/Intubation, dose end: 19 GD, group: maternal
rat [5] = conditions: Fertility (Segment I), sprague dawley, Oral, Gavage/Intubation, dose end: 7 GD
rat [6] = conditions: Sub-acute repeat dose toxicity, sprague dawley, Oral, Gavage/Intubation, dose end: 28 day, group: systemic
rabbit [7] = conditions: Prenatal developmental toxicity study; new zealand white; Oral; Gavage/Intubation; dose end: 19 GD; group: maternal; reproductive / offspring survival early / litter viability other / total litter loss + systemic / in life observation / body weight / body …
dog [8] = conditions: Chronic toxicity; beagle; Oral; Capsule; dose end: 26 week; group: systemic; systemic / in life observation / body weight / body weight gain + systemic / in life observation / clinical signs / [other] + systemic / in …
rabbit [9] = conditions: Prenatal developmental toxicity study, new zealand white, Oral, Gavage/Intubation, dose end: 19 GD, group: maternal; remark: listed apart in the source
rat [10] = conditions: Fertility (Segment I); sprague dawley; Oral; Gavage/Intubation; dose end: 7 GD; group: parental; systemic / in life observation / body weight / body weight + systemic / in life observation / clinical signs / abnormal gait + systemic / in…
rat [11] = conditions: Sub-acute repeat dose toxicity, sprague dawley, Oral, Gavage/Intubation, dose end: 28 day, group: systemic; remark: listed apart in the source
rat [12] = conditions: Prenatal developmental toxicity study, sprague dawley, Oral, Gavage/Intubation, dose end: 17 GD; remark: listed apart in the source
dog [13] = conditions: Sub-acute repeat dose toxicity, beagle, Oral, Capsule, dose end: 4 week, group: systemic
rat [14] = conditions: Prenatal developmental toxicity study, sprague dawley, Oral, Gavage/Intubation, dose end: 17 GD; remark: listed apart in the source
rabbit [15] = conditions: Prenatal developmental toxicity study, new zealand white, Oral, Gavage/Intubation, dose end: 19 GD, group: maternal; remark: listed apart in the source
mouse = conditions: Carcinogenicity; b6c3f1; Oral; Water; dose end: 90 week; group: systemic; systemic / pathology microscopic / liver / adenoma/carcinoma combined + systemic / pathology microscopic / liver / carcinoma + systemic / …
rat [16] = conditions: Carcinogenicity, other, Oral, Water, dose end: 110 week, group: systemic
[17] = systemic / in life observation / clinical signs / dialated pupils + systemic / in life observation / clinical signs / defecation (diarrhea)
[18] = systemic / in life observation / clinical signs / dialated pupils + systemic / in life observation / clinical signs / defecation (diarrhea…
[19] = group: developmental, systemic / in life observation / body weight / fetal weight
[20] = group: maternal, systemic / in life observation / body weight / body weight gain + systemic / in life observation / clinical signs / coma + systemic / in …
[21] = systemic / clinical chemistry / cholesterol / cholesterol + systemic / clinical chemistry / phosphorus / phosphate + systemic / clinical …
[22] = systemic / in life observation / clinical signs / hunched posture + systemic / pathology microscopic / liver / hypertrophy + systemic / in …
[23] = systemic / in life observation / body weight / body weight gain + systemic / in life observation / food consumption / food consumption
[24] = systemic / in life observation / body weight / body weight gain + systemic / in life observation / food consumption / food consumption + …
[25] = group: maternal, reproductive / reproductive performance / estrous cycle / abnormal
[26] = group: parental, systemic / in life observation / body weight / body weight gain + systemic / in life observation / clinical signs / hunched posture + …
[27] = systemic / hematology / reticulocyte / reticulocyte + systemic / in life observation / clinical signs / hunched posture + systemic / in life…
[28] = systemic / in life observation / clinical signs / hunched posture + systemic / in life observation / clinical signs / piloerection
[29] = systemic / in life observation / body weight / body weight gain + systemic / in life observation / clinical signs / defecation + systemic / …
[30] = systemic / in life observation / clinical signs / abnormal feces + systemic / in life observation / clinical signs / body cold to touch + …
[31] = systemic / in life observation / clinical signs / unsteady gait + systemic / in life observation / body weight / body weight gain
[32] = systemic / in life observation / clinical signs / unsteady gait + systemic / in life observation / body weight / body weight gain + systemic…
[33] = group: developmental, developmental / developmental malformation / mouth / jaw / cleft palate
[34] = group: maternal, systemic / in life observation / body weight / body weight gain + systemic / in life observation / clinical signs / abnormal gait + systemic…
[35] = systemic / clinical chemistry / albumin / albumin + systemic / clinical chemistry / cholesterol / cholesterol + systemic / clinical …
[36] = systemic / clinical chemistry / cholesterol / cholesterol + systemic / clinical chemistry / lipids / phospholipids
[37] = group: developmental, developmental / developmental malformation / mouth / jaw / cleft palate + systemic / in life observation / body weight / fetal weight
[38] = group: maternal, systemic / in life observation / clinical signs / impaired righting reflex + systemic / in life observation / clinical signs / piloerection
[39] = systemic / pathology microscopic / kidney / degeneration + systemic / pathology microscopic / stomach / ulcer
[40] = systemic / pathology microscopic / kidney / degeneration + systemic / pathology microscopic / stomach / ulcer + systemic / pathology …

With `O=C(N[C@@H](c1ccccc1)[C@@H]1CCCCN1)c1cccc(C(F)(F)F)c1Cl` the LEL (dog [1]; [17]) was 1 mg/kg/day, the NEL (dog [1]; [17]) was under 1 mg/kg/day and the LOAEL (dog [1]; [18]) was over 10 mg/kg/day. The NOAEL (dog [1]; [18]) was at least 10 mg/kg/day, the LEL (rat [2]; [19]) was 25 mg/kg/day and the LOAEL (rat [2]; [19]) was 25 mg/kg/day. The NEL (rat [2]; [19]) was 5 mg/kg/day, the NOAEL (rat [2]; [19]) was 5 mg/kg/day and the LOAEL (rat [2]; group: maternal, systemic / in life observation / body weight / body weight gain) was 25 mg/kg/day. The NEL (rat [2]; [20]) was 5 mg/kg/day, the NOAEL (rat [2]; [20]) was 5 mg/kg/day and the LEL (rat [2]; group: maternal, systemic / in life observation / body weight / body weight gain + systemic / in life observation / food consumption / food consumption) was 25 mg/kg/day. The LOAEL (rat [3]; [21]) was over 50 mg/kg/day, the NOAEL (rat [3]; [21]) was at least 50 mg/kg/day and the LEL (rat [3]; [22]) was 5 mg/kg/day. For the same compound, the NEL (rat [3]; [22]) was under 5 mg/kg/day, the LEL (rabbit [4]; [23]) was 15 mg/kg/day and the LOAEL (rabbit [4]; [24]) was over 30 mg/kg/day. The NEL (rabbit [4]; [24]) was 5 mg/kg/day, the NOAEL (rabbit [4]; [24]) was at least 30 mg/kg/day and the LEL (rat [5]; [25]) was 50 mg/kg/day. For the same compound, the LOAEL (rat [5]; [25]) was over 50 mg/kg/day, the NEL (rat [5]; [25]) was 25 mg/kg/day and the NOAEL (rat [5]; [25]) was at least 50 mg/kg/day. For the same compound, the LEL (rat [5]; [26]) was 25 mg/kg/day, the LOAEL (rat [5]; [26]) was 25 mg/kg/day and the NEL (rat [5]; [26]) was 5 mg/kg/day. The NOAEL (rat [5]; [26]) was 5 mg/kg/day, the LOAEL (rat [6]; [27]) was 25 mg/kg/day and the NOAEL (rat [6]; [27]) was 5 mg/kg/day. For the same compound, the LEL (rat [6]; [28]) was 5 mg/kg/day, the NEL (rat [6]; [28]) was under 5 mg/kg/day and the LEL (rabbit [7]) was 30 mg/kg/day. The LOAEL (rabbit [7]) was 30 mg/kg/day, the NEL (rabbit [7]) was 10 mg/kg/day and the NOAEL (rabbit [7]) was 10 mg/kg/day.

`COc1cccc(-c2ccc(/C=C\CN3CCCCCC3)cc2Cl)c1.Cl` showed an LEL (dog [8]) of 15 mg/kg/day, an LOAEL (dog [8]) of 15 mg/kg/day and an NEL (dog [8]) of 7.5 mg/kg/day. The NOAEL (dog [8]) was 7.5 mg/kg/day, the LEL (rabbit [9]; [29]) was 25 mg/kg/day and the NEL (rabbit [9]; [29]) was under 25 mg/kg/day. The LOAEL (rabbit [9]; [30]) was over 150 mg/kg/day, the NOAEL (rabbit [9]; [30]) was at least 150 mg/kg/day and the LEL (rat [10]) was 90 mg/kg/day. It also gave an LOAEL (rat [10]) of 90 mg/kg/day, an NEL (rat [10]) of 30 mg/kg/day and an NOAEL (rat [10]) of 30 mg/kg/day. It also gave an LOAEL (rat [11]; [31]) of 30 mg/kg/day, an NOAEL (rat [11]; [31]) of under 30 mg/kg/day and an LEL (rat [11]; [32]) of 30 mg/kg/day. It also gave an NEL (rat [11]; [32]) of under 30 mg/kg/day, an LEL (rat [12]; [33]) of 75 mg/kg/day and an LOAEL (rat [12]; [33]) of 75 mg/kg/day. It also gave an NEL (rat [12]; [33]) of 35 mg/kg/day, an NOAEL (rat [12]; [33]) of 35 mg/kg/day and an LEL (rat [12]; [34]) of 35 mg/kg/day. The LOAEL (rat [12]; [34]) was 35 mg/kg/day, the NEL (rat [12]; [34]) was 15 mg/kg/day and the NOAEL (rat [12]; [34]) was 15 mg/kg/day. The LOAEL (dog [13]; [35]) was 10 mg/kg/day, the NOAEL (dog [13]; [35]) was 5 mg/kg/day and the LEL (dog [13]; [36]) was 5 mg/kg/day. The NEL (dog [13]; [36]) was under 5 mg/kg/day, the LEL (rat [14]; [33]) was 60 mg/kg/day and the LOAEL (rat [14]; [33]) was 60 mg/kg/day. It also gave an NEL (rat [14]; [37]) of 30 mg/kg/day, an NOAEL (rat [14]; [37]) of 30 mg/kg/day and an LEL (rat [14]; [38]) of 30 mg/kg/day. The LOAEL (rat [14]; [38]) was 30 mg/kg/day, the NEL (rat [14]; [38]) was under 30 mg/kg/day and the NOAEL (rat [14]; [38]) was under 30 mg/kg/day. It also gave an LEL (rabbit [15]; [23]) of 35 mg/kg/day, an LOAEL (rabbit [15]; [23]) of 35 mg/kg/day and an NEL (rabbit [15]; [24]) of 15 mg/kg/day. The NOAEL (rabbit [15]; [24]) was 15 mg/kg/day.

In the case of `C1COCCO1` [1,4-Dioxane], the LEL (mouse) is reported as 380 mg/kg/day, the LOAEL (mouse) is reported as over 830 mg/kg/day and the NEL (mouse) is reported as under 380 mg/kg/day. The NOAEL (mouse) was at least 830 mg/kg/day, the LOAEL (rat [16]; [39]) was 240 mg/kg/day and the NOAEL (rat [16]; [39]) was under 240 mg/kg/day. For the same compound, the LEL (rat [16]; [40]) was 240 mg/kg/day and the NEL (rat [16]; [40]) was under 240 mg/kg/day.
